Experimental data as given in patent US7319098B2, “1,3-dioxoisoindole derivatives having selective antagonism of T-type calcium channel” (Korea Institute of Science and Technology, priority 2006, dated 2008).

Molecular target: T1, α1G T-type Ca2+ channels (Homo sapiens, UniProt O43497)
T1 construct: expressed in transfected cells; host or cells: HEK293 cells stably expressing α1G and Kir2.1
Experiment: Screening of activity against T-type calcium channel with FDSS6000 (fluorescence, KCl-induced [Ca2+]i increase)
Type: cell-based
Settings: 10 μM; HEK293 cells expressing α1G and Kir2.1; NA: Not Active; read-out: Inhibitory effect (%) of T-type calcium channel, Inhibition (%)
Method: Meanwhile, the antagonistic activity of the novel compound of Formula (1) herein against T-type calcium channel was tested as described below. The synthesized compounds were tested for the activity against T-type calcium channel with FDSS6000. Compounds with good activity were selected and IC50 values were exactly obtained by using electrophysiological whole cell patch clamp method. HEK293 cells which stably express both α1G and Kir2.1 subunits were grown in Dulbecco's modified Eagle's medium supplemented with 10% (v/v) fetal bovine serum, penicillin (100 U/mL), streptomycin (100 μg/mL), geneticin (500 μg/mL), and +puromycin (I μg/mL) at 37° C. in a humid atmosphere of 5% CO2 and 95% air. Cells were seeded into 96-well black wall clear bottom plates at a density of 4×10^4 cells/well and were used the next day for high-throughput screening (HTS) FDSS6000 assay. For FDSS6000 assay, cells were incubated for 60 min at room temperature with 5 μM fluo3/AM and 0.001% Pluronic F-127 in a HEPES-buffered solution composed of (in mM): 115 NaCl, 5.4 KCl, 0.8 MgCl2, 1.8 CaCl2, 20 HEPES, 13.8 glucose (pH 7.4). During the fluorescence-based FDSS6000 assay, cells in HEPES-buffered solution containing 10 mM CaCl2 were pretreated with a certain concentration of test compounds and then treated with high concentration of KCl ([…]). α1G T-type Ca^2+ channels were activated by using high concentration of KCl (70 mM) and the increase in [Ca^2+]i by KCl-induced depolarization was detected. During the whole procedure, cells were washed using the BIO-TEK 96-well washer. All data were collected and analyzed using FDSS6000 and related software (Hamamatsu, Japan). The IC50 results of examining the inhibitory effects of the compounds herein selected with FDSS6000 on the calcium influx through the T-type calcium channel are provided in TABLEs 1 and 2.

T1 sequence (O43497 whole entry): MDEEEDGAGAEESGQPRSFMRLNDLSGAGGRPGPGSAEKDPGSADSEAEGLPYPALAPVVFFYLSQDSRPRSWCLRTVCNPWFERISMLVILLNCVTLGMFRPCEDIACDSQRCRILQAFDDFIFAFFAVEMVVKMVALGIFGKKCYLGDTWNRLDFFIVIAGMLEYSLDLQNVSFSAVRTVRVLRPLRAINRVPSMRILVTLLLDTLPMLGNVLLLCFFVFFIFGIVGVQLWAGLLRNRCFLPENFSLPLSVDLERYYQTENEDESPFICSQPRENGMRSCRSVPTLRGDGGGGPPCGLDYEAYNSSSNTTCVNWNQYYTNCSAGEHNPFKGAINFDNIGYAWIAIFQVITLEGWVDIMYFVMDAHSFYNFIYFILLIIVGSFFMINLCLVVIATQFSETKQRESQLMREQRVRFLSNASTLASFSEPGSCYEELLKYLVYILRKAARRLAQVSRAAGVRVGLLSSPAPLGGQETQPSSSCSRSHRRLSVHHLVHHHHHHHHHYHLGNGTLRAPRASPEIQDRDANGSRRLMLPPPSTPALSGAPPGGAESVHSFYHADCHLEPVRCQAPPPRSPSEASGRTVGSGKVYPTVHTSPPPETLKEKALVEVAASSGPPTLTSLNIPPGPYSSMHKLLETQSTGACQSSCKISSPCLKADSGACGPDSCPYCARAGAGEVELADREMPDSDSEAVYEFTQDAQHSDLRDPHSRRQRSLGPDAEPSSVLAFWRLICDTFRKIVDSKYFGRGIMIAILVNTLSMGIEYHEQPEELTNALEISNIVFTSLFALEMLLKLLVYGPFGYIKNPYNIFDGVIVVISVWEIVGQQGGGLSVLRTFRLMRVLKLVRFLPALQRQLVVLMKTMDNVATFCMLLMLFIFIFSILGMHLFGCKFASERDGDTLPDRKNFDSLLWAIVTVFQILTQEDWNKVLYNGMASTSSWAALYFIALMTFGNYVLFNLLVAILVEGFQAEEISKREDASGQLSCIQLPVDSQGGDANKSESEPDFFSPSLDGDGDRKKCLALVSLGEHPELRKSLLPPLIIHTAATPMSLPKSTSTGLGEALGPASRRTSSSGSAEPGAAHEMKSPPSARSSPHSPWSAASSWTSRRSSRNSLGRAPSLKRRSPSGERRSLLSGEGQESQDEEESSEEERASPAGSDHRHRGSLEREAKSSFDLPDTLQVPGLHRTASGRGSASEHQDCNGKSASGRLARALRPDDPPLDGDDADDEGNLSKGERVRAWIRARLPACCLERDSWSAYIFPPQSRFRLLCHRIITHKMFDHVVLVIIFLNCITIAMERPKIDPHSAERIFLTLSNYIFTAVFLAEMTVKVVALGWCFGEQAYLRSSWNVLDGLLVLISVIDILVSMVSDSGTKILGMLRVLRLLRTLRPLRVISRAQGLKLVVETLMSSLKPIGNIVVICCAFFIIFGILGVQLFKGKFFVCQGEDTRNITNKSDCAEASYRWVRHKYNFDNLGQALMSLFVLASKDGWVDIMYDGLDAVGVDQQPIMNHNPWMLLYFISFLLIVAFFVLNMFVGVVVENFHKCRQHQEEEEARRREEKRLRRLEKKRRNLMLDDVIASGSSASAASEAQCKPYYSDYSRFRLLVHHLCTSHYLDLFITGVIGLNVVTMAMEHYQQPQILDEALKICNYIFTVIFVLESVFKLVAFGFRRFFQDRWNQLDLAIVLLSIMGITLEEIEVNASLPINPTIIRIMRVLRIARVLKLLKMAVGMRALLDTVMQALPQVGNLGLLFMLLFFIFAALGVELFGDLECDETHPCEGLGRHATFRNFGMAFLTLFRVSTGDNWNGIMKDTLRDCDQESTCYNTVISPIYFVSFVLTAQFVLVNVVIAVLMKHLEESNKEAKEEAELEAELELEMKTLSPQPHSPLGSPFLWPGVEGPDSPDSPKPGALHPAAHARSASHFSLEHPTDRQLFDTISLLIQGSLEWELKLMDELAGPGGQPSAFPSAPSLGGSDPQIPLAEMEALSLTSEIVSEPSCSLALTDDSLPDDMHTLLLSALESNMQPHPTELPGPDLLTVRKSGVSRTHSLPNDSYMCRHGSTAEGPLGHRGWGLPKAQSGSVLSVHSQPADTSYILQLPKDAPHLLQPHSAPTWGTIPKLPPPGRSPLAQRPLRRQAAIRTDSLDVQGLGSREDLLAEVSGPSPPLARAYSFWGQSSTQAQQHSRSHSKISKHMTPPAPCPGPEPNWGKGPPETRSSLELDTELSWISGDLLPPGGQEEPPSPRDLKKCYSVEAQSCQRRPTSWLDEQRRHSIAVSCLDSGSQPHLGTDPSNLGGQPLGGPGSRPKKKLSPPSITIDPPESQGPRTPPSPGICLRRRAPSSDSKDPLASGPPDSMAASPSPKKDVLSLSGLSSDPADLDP

Row | inhibition at 10 µM | SMILES
1 | 27.2% | Cc1cccc(CN2C(=O)c3ccc(C(=O)NCCN4CCCC4)cc3C2=O)c1 [Compound 101, 1-(2-{[2-(3-methyl-benzyl)-1,3-dioxo-2,3-dihydro-1H-isoindol-5-carbonyl]-amino}-ethyl)-pyrrolidinium chloride]
2 | 15.6% | Cc1ccc(CN2C(=O)c3ccc(C(=O)NCCCN4CCCC4)cc3C2=O)cc1 [Compound 108, 1-(3-{[2-(4-methyl-benzyl)-1,3-dioxo-2,3-dihydro-1H isoindol-5-carbonyl]-amino}-propyl)-pyrrolidinium chloride]
3 | 5.6% | CN1CCN(CCCNC(=O)c2ccc3c(c2)C(=O)N(Cc2ccc(F)cc2)C3=O)CC1 [Compound 74, 1-(3-{[2-(4-fluoro-benzyl)-1,3-dioxo-2,3-dihydro-1H-isoindol-5-carbonyl]-amino}-propyl)-4-methyl-1-piperazinium chloride]
4 | 25.3% | O=C(NCCN1CCOCC1)c1ccc2c(c1)C(=O)N(Cc1cccc(Cl)c1)C2=O [Compound 85, 4-(2-{[2-(3-chloro-benzyl)-1,3-dioxo-2,3-dihydro-1H-isoindol-5-carbonyl]-amino}-ethyl)-4-morpholinium chloride]
5 | 20.7% | Cc1ccc(CN2C(=O)c3ccc(C(=O)NCCN4CCCC4)cc3C2=O)cc1 [Compound 107, 1-(2-{[2-(4-methyl-benzyl)-1,3-dioxo-2,3-dihydro-1H-isoindol-5-carbonyl]-amino}-ethyl)-pyrrolidinium chloride]
6 | 30.4% | O=C(NCCCN1CCCC1)c1ccc2c(c1)C(=O)N(Cc1cccc(Cl)c1)C2=O [Compound 84, 1-(3-{[2-(3-chloro-benzyl)-1,3-dioxo-2,3-dihydro-1H-isoindol-5-carbonyl]-amino}-propyl)-pyrrolidinium chloride]
7 | 28.9% | O=C(NCCN1CCCC1)c1ccc2c(c1)C(=O)N(Cc1cccc(Cl)c1)C2=O [Compound 83, 1-(2-{[2-(3-chloro-benzyl)-1,3-dioxo-2,3-dihydro-1H-isoindol-5-carbonyl]-amino}-ethyl)-pyrrolidinium chloride]
8 | 26.1% | O=C(NCCN1CCOCC1)c1ccc2c(c1)C(=O)N(Cc1ccc(Cl)cc1)C2=O [Compound 91, 4-(2-{[2-(4-chloro-benzyl)-1,3-dioxo-2,3-dihydro-1H-isoindol-5-carbonyl]-amino}-ethyl)-4-morpholinium chloride]
9 | 4.7% | Cc1cccc(N2C(=O)c3ccc(C(=O)NCCN4CCCC4)cc3C2=O)c1 [Compound 35, 1-{2-[(1,3-dioxo-2-m-tolyl-2,3-dihydro-1H-isoindol-5-carbonyl)-amino]-ethyl}-pyrrolidinium chloride]

Same assay, conditions: 100 μM; HEK293 cells expressing α1G and Kir2.1; read-out: Inhibitory effect (%) of T-type calcium channel, Inhibition (%)

Row | SMILES | inhibition at 100 µM
10 | O=C(NCCN1CCCCC1)c1ccc2c(c1)C(=O)N(c1ccccc1Cl)C2=O [Compound 25, 1-(2-{[2-(2-chloro-phenyl)-1,3-dioxo-2,3-dihydro-1H-isoindol-5-carbonyl]-amino}-ethyl)-piperidinium chloride] | 38.2%
11 | O=C(NCCN1CCCC1)c1ccc2c(c1)C(=O)N(c1ccc(F)cc1)C2=O [Compound 21, 1-(2-{[2-(4-fluoro-phenyl)-1,3-dioxo-2,3-dihydro-1H-isoindol-5-carbonyl]-amino}-ethyl)-pyrrolidinium chloride] | 19.4%
12 | O=C(NCCN1CCOCC1)c1ccc2c(c1)C(=O)N(c1cccc(F)c1)C2=O [Compound 17, 4-(2-{[2-(3-fluoro-phenyl)-1,3-dioxo-2,3-dihydro-1H-isoindol-5-carbonyl]-amino}-ethyl)-4-morpholinium chloride] | 29.2%
13 | O=C(NCCCN1CCCC1)c1ccc2c(c1)C(=O)N(c1ccccc1F)C2=O [Compound 10, 1-(3-{[2-(2-fluoro-phenyl)-1,3-dioxo-2,3-dihydro-1H-isoindol-5-carbonyl]-amino}-propyl)-pyrrolidinium chloride] | 32.5%
14 | O=C(NCCN1CCCCC1)c1ccc2c(c1)C(=O)N(c1cccc(Cl)c1)C2=O [Compound 26, 1-(2-{[2-(3-chloro-phenyl)-1,3-dioxo-2,3-dihydro-1H isoindol-5-carbonyl]-amino}-ethyl)-piperidinium chloride] | 52.7%
15 | O=C(NCCN1CCCCC1)c1ccc2c(c1)C(=O)N(Cc1ccccc1)C2=O [Compound 49, 1-{2-[(2-benzyl-1,3-dioxo-2,3-dihydro-1H-isoindol-5-carbonyl)-amino]-ethyl}-piperidinium chloride] | 72.4%
16 | COc1ccc(N2C(=O)c3ccc(C(=O)NCCN4CCCCC4)cc3C2=O)cc1 [Compound 48, 1-(2-{[2-(4-methoxy-phenyl)-1,3-dioxo-2,3-dihydro-1H-isoindol-5-carbonyl]-amino}-ethyl)-piperidinium chloride] | 31.4%
17 | O=C(NCCN1CCCCC1)c1ccc2c(c1)C(=O)N(c1ccc(Cl)cc1)C2=O [Compound 27, 1-(2-{[2-(4-chloro-phenyl)-1,3-dioxo-2,3-dihydro-1H-isoindol-5-carbonyl]-amino}-ethyl)-piperidinium chloride] | 44.5%
18 | O=C(NCCN1CCCC1)c1ccc2c(c1)C(=O)N(c1ccccc1)C2=O [Compound 3, 1-{2-[(1,3-dioxo-2-phenyl-2,3-dihydro-1H-isoindol-5-carbonyl)-amino]-ethyl}-pyrrolidinium chloride] | 20.3%
19 | Cc1ccccc1N1C(=O)c2ccc(C(=O)NCCCN3CCCCC3C)cc2C1=O (centres unmarked) [Compound 29, 1-{3-[(1,3-dioxo-2-o-tolyl-2,3-dihydro-1H-isoindol-5-carbonyl)-amino]-propyl}-2-methyl-piperidinium chloride] | 53.8%
20 | O=C(NCCN1CCCC1)c1ccc2c(c1)C(=O)N(Cc1ccccc1)C2=O [Compound 51, 1-{2-[(2-benzyl-1,3-dioxo-2,3-dihydro-1H-isoindol-5-carbonyl)-amino]-ethyl}-pyrrolidinium chloride] | 48.4%
21 | Cc1ccccc1N1C(=O)c2ccc(C(=O)NCCN3CCCCC3)cc2C1=O [Compound 28, 1-{2-[(1,3-dioxo-2-o-tolyl-2,3-dihydro-1H-isoindol-5-carbonyl)-amino]-ethyl}-piperidinium chloride] | 45.6%

Results, then the molecule that gave them:

Row | inhibition at 100 µM | SMILES
22 | 64.8% | O=C(NCCCN1CCOCC1)c1ccc2c(c1)C(=O)N(Cc1ccc(F)cc1)C2=O [Compound 73, 4-(3-{[2-(4-fluoro-benzyl)-1,3-dioxo-2,3-dihydro-1H-isoindol-5-carbonyl]-amino}-propyl)-4-morpholinium chloride]
23 | 69.8% | COc1cccc(CN2C(=O)c3ccc(C(=O)NCCN4CCCCC4)cc3C2=O)c1 [Compound 117, 1-(2-{[2-(3-methoxy-benzyl)-1,3-dioxo-2,3-dihydro-1H-isoindol-5-carbonyl]-amino}-ethyl)-piperidinium chloride]
24 | 83.5% | CC1CCCCN1CCCNC(=O)c1ccc2c(c1)C(=O)N(Cc1cccc(F)c1)C2=O (centres unmarked) [Compound 62, 1-(3-{[2-(3-fluoro-benzyl)-1,3-dioxo-2,3-dihydro-1H-isoindol-5-carbonyl]-amino}-propyl)-2-methyl-piperidinium chloride]
25 | 30.2% | O=C(NCCN1CCOCC1)c1ccc2c(c1)C(=O)N(Cc1ccccc1F)C2=O [Compound 59, 4-(2-{[2-(2-fluoro-benzyl)-1,3-dioxo-2,3-dihydro-1H-isoindol-5-carbonyl]-amino}-ethyl)-4-morpholinium chloride]
26 | 56.3% | COc1cccc(CN2C(=O)c3ccc(C(=O)NCCN4CCCC4)cc3C2=O)c1 [Compound 119, 1-(2-{[2-(3-methoxy-benzyl)-1,3-dioxo-2,3-dihydro-1H-isoindol-5-carbonyl]-amino}-ethyl)-pyrrolidinium chloride]
27 | 55.1% | COc1ccccc1CN1C(=O)c2ccc(C(=O)NCCN3CCCC3)cc2C1=O [Compound 113, 1-(2-{[2-(2-methoxy-benzyl)-1,3-dioxo-2,3-dihydro-1H-isoindol-5-carbonyl]-amino}-ethyl)-pyrrolidinium chloride]
28 | 55.2% | Cc1ccccc1CN1C(=O)c2ccc(C(=O)NCCCN3CCOCC3)cc2C1=O [Compound 98, 4-(3-{[2-(2-methyl-benzyl)-1,3-dioxo-2,3-dihydro-1H-isoindol-5-carbonyl]-amino}-propyl)-4-morpholinium chloride]
29 | 48.8% | COc1ccccc1CN1C(=O)c2ccc(C(=O)NCCCN3CCOCC3)cc2C1=O [Compound 116, 4-(3-{[2-(2-methoxy-benzyl)-1,3-dioxo-2,3-dihydro-1H-isoindol-5-carbonyl]-amino}-propyl)-4-morpholinium chloride]
